In EP0044212B1, “Herbicidal o-alkylsulfonyloxy- and o-alkylsulfonylamino-benzenesulfonamides” (E.I. DU PONT DE NEMOURS AND COMPANY, priority 1980, dated 1982):

Assays:
Assay in all cases: Test A greenhouse herbicide screen
[1] = tested on: Bush Bean; assay type: in vivo, bush beans; settings: POST-EMERGENCE, 16 days
Excerpt: (§1) Seeds of crabgrass (Digitaria spp.), barnyardgrass (Echinochloa crusgalli), wild oats (Avena fatua), cassia (Cassia tora), morningglory (Ipomoea sp.), cocklebur (Xanthium spp.), sorghum, corn, soybean, rice, wheat and nutsedge tubers (Cyperus rotundus) were planted in a growth medium and treated preemergence with the chemicals dissolved in a non-phytotoxic solvent solution of the compounds of Table A. At the same time, cotton having five leaves (including cotyledonary ones), bush beans with the third trifoliate leaf expanding, crabgrass and barnyardgrass with two leaves, wild oats with two leaves, cassia with three leaves (including cotyledonary ones), morningglory and cocklebur with four leaves (including the cotyldonary ones), sorghum and corn with four leaves, soybean with two cotyledonary leaves, rice with three leaves, wheat with one leaf, and nutsedge with three-five leaves were sprayed with a non-phytotoxic solvent solution of the compounds of Table A. Other containers of the above mentioned weeds and crops were treated pre- or post-emergence with the same non-phytotoxic solvent so as to provide a solvent control. A set of untreated control plants was also included for comparison. Pre- emergence and post-emergence treated plants and controls were maintained in a greenhouse for sixteen days, then all treated plants were compared with their respective controls and rated visually for response to treatment.

[2] = tested on: Corn; assay type: in vivo; settings: 16 days
Excerpt: as §1

[3] = tested on: Cotton; assay type: in vivo; settings: POST-EMERGENCE, 16 days
Excerpt: as §1

[4] = tested on: Sorghum; assay type: in vivo; settings: 16 days
Excerpt: as §1

[5] = tested on: Wild Oats; assay type: in vivo, Avena fatua; settings: 16 days
Excerpt: as §1

[6] = tested on: Rice; assay type: in vivo; set-up: scale not given here; settings: 16 days
Excerpt: as §1

[7] = tested on: Soybean; assay type: in vivo; set-up: scale not given here; settings: 16 days
Excerpt: as §1

[8] = tested on: Wheat; assay type: in vivo; set-up: scale not given here; settings: 16 days
Excerpt: as §1

[9] = tested on: Barnyardgrass; assay type: in vivo, Echinochloa crusgalli; settings: 16 days
Excerpt: as §1

[10] = tested on: Crabgrass; assay type: in vivo, Digitaria spp.; set-up: scale not given here; settings: 16 days
Excerpt: as §1

[11] = tested on: Morningglory; assay type: in vivo, Ipomoea sp.; settings: 16 days
Excerpt: as §1

[12] = tested on: Cocklebur; assay type: in vivo, Xanthium spp.; settings: 16 days
Excerpt: as §1

[13] = tested on: Cassia; assay type: in vivo, Cassia tora; set-up: scale not given here; settings: 16 days
Excerpt: as §1

[14] = tested on: Nutsedge; assay type: in vivo, Cyperus rotundus; set-up: scale not given here; settings: 16 days
Excerpt: as §1

COc1nc(C)nc(NC(=O)NS(=O)(=O)c2cc(Cl)cc(Cl)c2OS(C)(=O)=O)n1 [Compound 43]
Bush Bean response rating ([1]; 2 kg/ha): 0
Bush Bean response rating ([1]; 6 kg/ha): 3C
Corn response rating ([2]; POST-EMERGENCE, 2 kg/ha): 0
Corn response rating ([2]; POST-EMERGENCE, 6 kg/ha): 0
Corn response rating ([2]; PRE-EMERGENCE, 2 kg/ha): 0
Cotton response rating ([3]; 2 kg/ha): 0
Cotton response rating ([3]; 6 kg/ha): 3C
Sorghum response rating ([4]; POST-EMERGENCE, 2 kg/ha): 0
Sorghum response rating ([4]; POST-EMERGENCE, 6 kg/ha): 0
Sorghum response rating ([4]; PRE-EMERGENCE, 2 kg/ha): 0
Wild Oats response rating ([5]; POST-EMERGENCE, 2 kg/ha): 0
Wild Oats response rating ([5]; POST-EMERGENCE, 6 kg/ha): 0
Wild Oats response rating ([5]; PRE-EMERGENCE, 2 kg/ha): 0
Rice response rating ([6]; POST-EMERGENCE, 2 kg/ha): 0
Rice response rating ([6]; POST-EMERGENCE, 6 kg/ha): 0
Rice response rating ([6]; PRE-EMERGENCE, 2 kg/ha): 0
Rice response rating ([6]; PRE-EMERGENCE, 6 kg/ha): 1C
Soybean response rating ([7]; POST-EMERGENCE, 2 kg/ha): 0
Soybean response rating ([7]; POST-EMERGENCE, 6 kg/ha): 1C
Soybean response rating ([7]; PRE-EMERGENCE, 2 kg/ha): 0
Soybean response rating ([7]; PRE-EMERGENCE, 6 kg/ha): 0
Wheat response rating ([8]; POST-EMERGENCE, 2 kg/ha): 0
Wheat response rating ([8]; POST-EMERGENCE, 6 kg/ha): 0
Wheat response rating ([8]; PRE-EMERGENCE, 2 kg/ha): 0
Wheat response rating ([8]; PRE-EMERGENCE, 6 kg/ha): 0
Barnyardgrass response rating ([9]; POST-EMERGENCE, 2 kg/ha): 0
Barnyardgrass response rating ([9]; POST-EMERGENCE, 6 kg/ha): 1C
Barnyardgrass response rating ([9]; PRE-EMERGENCE, 2 kg/ha): 0
Crabgrass response rating ([10]; POST-EMERGENCE, 2 kg/ha): 0
Crabgrass response rating ([10]; POST-EMERGENCE, 6 kg/ha): 0
Crabgrass response rating ([10]; PRE-EMERGENCE, 2 kg/ha): 0
Crabgrass response rating ([10]; PRE-EMERGENCE, 6 kg/ha): 2G
Morningglory response rating ([11]; POST-EMERGENCE, 2 kg/ha): 0
Morningglory response rating ([11]; POST-EMERGENCE, 6 kg/ha): 0
Morningglory response rating ([11]; PRE-EMERGENCE, 2 kg/ha): 0
Morningglory response rating ([11]; PRE-EMERGENCE, 6 kg/ha): 3C
Cocklebur response rating ([12]; POST-EMERGENCE, 2 kg/ha): 0
Cocklebur response rating ([12]; POST-EMERGENCE, 6 kg/ha): 0
Cocklebur response rating ([12]; PRE-EMERGENCE, 2 kg/ha): 0
Cassia response rating ([13]; POST-EMERGENCE, 2 kg/ha): 0
Cassia response rating ([13]; POST-EMERGENCE, 6 kg/ha): 1C
Cassia response rating ([13]; PRE-EMERGENCE, 2 kg/ha): 0
Cassia response rating ([13]; PRE-EMERGENCE, 6 kg/ha): 3G
Nutsedge response rating ([14]; POST-EMERGENCE, 2 kg/ha): 0
Nutsedge response rating ([14]; POST-EMERGENCE, 6 kg/ha): 0
Nutsedge response rating ([14]; PRE-EMERGENCE, 2 kg/ha): 0
Nutsedge response rating ([14]; PRE-EMERGENCE, 6 kg/ha): 0

COc1nc(NC(=O)NS(=O)(=O)c2cc(Cl)cc(Cl)c2OS(C)(=O)=O)nc(OC)n1 [Compound 44]
Bush Bean response rating ([1]; 2 kg/ha): 0
Bush Bean response rating ([1]; 6 kg/ha): 0
Corn response rating ([2]; POST-EMERGENCE, 2 kg/ha): 0
Corn response rating ([2]; POST-EMERGENCE, 6 kg/ha): 0
Corn response rating ([2]; PRE-EMERGENCE, 2 kg/ha): 0
Cotton response rating ([3]; 2 kg/ha): 0
Cotton response rating ([3]; 6 kg/ha): 2C
Sorghum response rating ([4]; POST-EMERGENCE, 2 kg/ha): 0
Sorghum response rating ([4]; POST-EMERGENCE, 6 kg/ha): 2C
Sorghum response rating ([4]; PRE-EMERGENCE, 2 kg/ha): 0
Sorghum response rating ([4]; PRE-EMERGENCE, 6 kg/ha): 2C
Wild Oats response rating ([5]; POST-EMERGENCE, 2 kg/ha): 0
Wild Oats response rating ([5]; POST-EMERGENCE, 6 kg/ha): 0
Wild Oats response rating ([5]; PRE-EMERGENCE, 2 kg/ha): 0
Wild Oats response rating ([5]; PRE-EMERGENCE, 6 kg/ha): 0
Rice response rating ([6]; POST-EMERGENCE, 2 kg/ha): 0
Rice response rating ([6]; POST-EMERGENCE, 6 kg/ha): 0
Rice response rating ([6]; PRE-EMERGENCE, 2 kg/ha): 0
Rice response rating ([6]; PRE-EMERGENCE, 6 kg/ha): 1C
Soybean response rating ([7]; POST-EMERGENCE, 2 kg/ha): 0
Soybean response rating ([7]; POST-EMERGENCE, 6 kg/ha): 3G
Soybean response rating ([7]; PRE-EMERGENCE, 2 kg/ha): 0
Soybean response rating ([7]; PRE-EMERGENCE, 6 kg/ha): 0
Wheat response rating ([8]; POST-EMERGENCE, 2 kg/ha): 0
Wheat response rating ([8]; POST-EMERGENCE, 6 kg/ha): 0
Wheat response rating ([8]; PRE-EMERGENCE, 2 kg/ha): 0
Wheat response rating ([8]; PRE-EMERGENCE, 6 kg/ha): 0
Barnyardgrass response rating ([9]; POST-EMERGENCE, 2 kg/ha): 0
Barnyardgrass response rating ([9]; POST-EMERGENCE, 6 kg/ha): 0
Barnyardgrass response rating ([9]; PRE-EMERGENCE, 2 kg/ha): 0
Barnyardgrass response rating ([9]; PRE-EMERGENCE, 6 kg/ha): 5C
Crabgrass response rating ([10]; POST-EMERGENCE, 2 kg/ha): 0
Crabgrass response rating ([10]; POST-EMERGENCE, 6 kg/ha): 0
Crabgrass response rating ([10]; PRE-EMERGENCE, 2 kg/ha): 0
Crabgrass response rating ([10]; PRE-EMERGENCE, 6 kg/ha): 0
Morningglory response rating ([11]; POST-EMERGENCE, 2 kg/ha): 0
Morningglory response rating ([11]; PRE-EMERGENCE, 2 kg/ha): 0
Morningglory response rating ([11]; PRE-EMERGENCE, 6 kg/ha): 2C
Cocklebur response rating ([12]; POST-EMERGENCE, 2 kg/ha): 0
Cocklebur response rating ([12]; POST-EMERGENCE, 6 kg/ha): 0
Cocklebur response rating ([12]; PRE-EMERGENCE, 2 kg/ha): 0
Cocklebur response rating ([12]; PRE-EMERGENCE, 6 kg/ha): 5H
Cassia response rating ([13]; POST-EMERGENCE, 2 kg/ha): 0
Cassia response rating ([13]; POST-EMERGENCE, 6 kg/ha): 0
Cassia response rating ([13]; PRE-EMERGENCE, 2 kg/ha): 0
Cassia response rating ([13]; PRE-EMERGENCE, 6 kg/ha): 5G
Nutsedge response rating ([14]; POST-EMERGENCE, 2 kg/ha): 0
Nutsedge response rating ([14]; POST-EMERGENCE, 6 kg/ha): 0
Nutsedge response rating ([14]; PRE-EMERGENCE, 2 kg/ha): 0
Nutsedge response rating ([14]; PRE-EMERGENCE, 6 kg/ha): 0
